Measured values taken from ChEMBL document CHEMBL1145042, “Understanding the structure-activity relationship of the human ether-a-go-go-related gene cardiac K+ channel. A model for bad behavior” (J Med Chem, 2003).

System: Bacteria
Test: Bacterial minimum inhibitory concentration
Format: functional

- MIC: < 2.4 µM
Compound: Cc1c(F)c(N2CCNC(C)C2)cc2c1c(=O)c(C(=O)O)cn2C1CC1 (stereo unspecified) [GREPAFLOXACIN]
